Legend:
MC65 cells [1] = test: APP CTF-induced neurotoxicity (cell viability) in MC65 cells; conditions: for attenuation of APP CTF-induced neurotoxicity (active/inactive): in vitro challenge test
[2] = test system: NGF-differentiated PC12 cells; conditions: 10 μM; cited from earlier work
Abeta plaque = Abeta plaque in brains of Alzheimer's transgenic mice versus control vehicle; type: in vivo; conditions: 2% phytic acid, all three cases (FIGS. 4-6)
Protocol: (§1) Applicant also submits Table 1 and FIGS. 4-6 showing data from in vivo testing of the subject matter compounds in Alzheimer's transgenic mice. These Alzheimer's transgenic mice are genetically altered to produce Abeta plaque, and were treated for about six months with compounds of the Applicant's invention. Namely, the drinking water was infused with phytic acid so that the final concentration of phytic acid in the drinking water was 2%.
After six months, the animals were put down for autopsy and necropsy so that Abeta plaque in the brains was assayed, separated and weighed.
FIGS. 4-6 are graphs comparing the tested compound in vivo with the control vehicle.

[3] = test system: Alzheimer's transgenic mice; test: Toxicity and weight loss in treated Alzheimer's transgenic mice; type: in vivo; conditions: 2% phytic acid in drinking water, about six months
Protocol: as §1

[4] = humans, ingestion of large doses; cited from earlier work
MC65 cells [5] = test: Oxidative stress associated with APP CTF expression, hydrogen peroxide in cell media; type: cell-based, human; conditions: 100 μM
Protocol: In vitro studies were conducted in MC65 cells, an established human neuroblastoma line that conditionally expresses the first 17 amino-terminal residues and the 99 carboxy-terminal residues of amyloid precursor protein (APP CTF). Detectable APP CTF expression occurs within 3-4 h of tetracycline withdrawal, appearance of aggregates and initial losses of culture viability occurs at about 2 days and near complete death occurs by approximately 3 days.

[6] = test system: transgenic mouse model of Alzheimer's Disease; conditions: cited from earlier work
amyloid-B peptide (AB) = conditions: transgenic Alzheimer Disease mouse studies; cited from earlier work

Row | Compound | attenuation of APP CTF-induced neurotoxicity (active/inactive) (MC65 cells [1]) | rescue from Ab-induced neurotoxicity [2] | EC50 (MC65 cells [1]; Homo sapiens, MC65, read-out: EC50 concentration, protection from APP CTF-induced death) | protection from cytotoxicity (MC65 cells [1]; MC65 cells, concentrations of 200 μM and higher) | Abeta plaque compared to the control vehicle (Abeta plaque) | toxicity in the treated group [3] | weight loss in the treated group [3] | physiological discomfort or symptoms of toxicological action [4] | oxidative stress associated with APP CTF expression (hydrogen peroxide in the cell media) (MC65 cells [5]) | prevention and reversal of Alzheimer's Disease [6] | aggregation of amyloid-B peptide (AB) (amyloid-B peptide (AB))
1 | O[C@H]1[C@H](O)[C@@H](O)[C@H](O)[C@@H](O)[C@H]1O [myo inositol, reference compound] | inactive | rescues | – | – | – | – | – | – | – | – | –
2 | O=P(O)(O)O[C@H]1[C@H](OP(=O)(O)O)[C@@H](OP(=O)(O)O)[C@H](OP(=O)(O)O)[C@@H](OP(=O)(O)O)[C@H]1OP(=O)(O)O [phytic acid, myo-inositol-hexakis (dihydrogen phosphate)] | active | – | ~100 µM | near complete protection | reduction in Abeta plaque | no toxicity | nor any significant weight loss | elicits no physiological discomfort or symptoms of any toxicological action | suppressed oxidative stress | – | –
3 | O[C@H]1[C@H](O)[C@@H](O)[C@H](O)[C@@H](O)[C@@H]1O [scyllo inositol] | inactive | rescues | – | – | – | – | – | – | – | prevent and reverse Alzheimer's Disease | inhibits and blocks the aggregation

— US11510932B2, “Prophylactic and therapeutic treatment of alzheimer's disease using phytic acid and phytate to reduce amyloid beta plaque and tau protein” (priority 2009, dated 2022)
